From patent publication US11306111B2, “Organophosphate derivatives” (January Therapeutics, Inc., priority 2017, dated 2022) come the findings set out here.

Where only a bound is given, the exact number is not on record here.

For the experiment, the system named is BxPC-3 cells. Briefly: Cellular proliferation assay in BxPC-3 cells (Cell-Titer Glo, 120 h). In kind it is cell-based. The following applies: Homo sapiens, 120 h incubation, Cell-Titer Glo luminescence. How it is done:
Compounds are tested for their ability to impair cancer cell proliferation and/or induce cell death. For cellular proliferation studies, cultured cells are treated with the test compound for 24-120 hours. After compound treatment, cell proliferation is assessed by using methods including, but not limited to, Cell-Titer-Glo® (Promega), Alamar Blue, LIVE/DEAD® (ThermoFisher), BrdU incorporation, and live-cell imaging.
The cancer lines used include, but are not limited to, PANC-1, MiaPaCa-2, BxPC-3 (pancreatic cancer), RT112 (bladder cancer), MCF-7 (breast cancer), and A549 (non-small cell lung cancer). Gemcitabine Hydrochloride serves as a control for activity.
Protocol for the Cellular Proliferation Assay in BxPC-3 Cells
BxPC-3 (pancreatic adenocarcinoma) cell line was purchased from the American Type Culture Collection (Catalog #CRL-1687) and grown in RPMI-1640 medium (e.g. Corning #10-040-CV) with 10% Heat Inactivated Fetal Calf Serum at 37° C. and 5% CO2 (as recommended by the ATCC).
Cultures were grown in […] plates to 80% confluence, and cells were trypsinized to a single-cell suspension. Cells were then resuspended in growth medium to a density of […]. They were then plated into 96-well assay plates (Corning #3917) in a volume of 100 ul/well (2,500 cells/well). Cells were allowed to adhere to plates for 24 h at 37° C. and 5% CO2). Compounds were then added to the wells using an […] serial dilution scheme (over 9 dilutions, generally ranging from 30 μM-30 pM), and the cells were incubated for an additional 120 hours. After 120 h, 90 ul of Cell-Titer Glo reagent (Promega #G7572) was added, and the plates were read using a luminescence counter (e.g., BioTek Synergy HTX at 100 ms read time).
Usually EC50 stands for the midpoint of the concentration-response curve. Turning to `CCCCCCCCCCOP1(=O)OC[C@H]2O[C@@H](n3ccc(N)nc3=O)C(F)(F)[C@@H]2O1` (single isomer, unassigned) [Compound 42A], the EC50 was below 0.001 µM.

On to `CCCCCCCCCCCCCCCCOP1(=O)OC[C@H]2O[C@@H](n3ccc(N)nc3=O)C(F)(F)[C@@H]2O1` (single isomer, unassigned) [Compound 43A], for which the EC50 lay within 0.001 to 0.1 µM.

Turning to `CCCCCCCCCCCCCCCCCCOP1(=O)OC[C@H]2O[C@@H](n3ccc(N)nc3=O)C(F)(F)[C@@H]2O1` (single isomer, unassigned) [Compound 44A], the EC50 lay within 0.001 to 0.1 µM.

As for `CCCCCCCCCCCCCCCCCCCCOP1(=O)OC[C@H]2O[C@@H](n3ccc(N)nc3=O)C(F)(F)[C@@H]2O1` (single isomer, unassigned) [Compound 45A], the EC50 is below 1 µM. Turning to `CCCCCCCCCCCCCCCCCCCCCCOP1(=O)OC[C@H]2O[C@@H](n3ccc(N)nc3=O)C(F)(F)[C@@H]2O1` (single isomer, unassigned) [Compound 46A], the EC50 is 1 to 25 µM. Regarding `CCCCCCCCC(=O)O[C@@H]1[C@@H](COP(=O)(OCCCCCC)OCCCCCC)O[C@@H](n2ccc(N)nc2=O)C1(F)F` [Compound 1, (2R,3R,5R)-5-(4-amino-2-oxopyrimidin-1(2H)-yl)-2-(((bis(hexyloxy)phosphoryl)oxy)methyl)-4,4-difluorotetrahydrofuran-3-yl nonanoate], the EC50 lay in the range of 0.001 to 0.1 µM. In the case of `CCCCCCCCC(=O)O[C@@H]1[C@@H](COP2(=O)OCc3ccccc3O2)O[C@@H](n2ccc(N)nc2=O)C1(F)F` (stereo partly drawn) [Compound 2, (2R,3R,5R)-5-(4-amino-2-oxopyrimidin-1(2H)-yl)-4,4-difluoro-2-(((2-oxido-4H-benzo[d][1,3,2]dioxaphosphinin-2-yl)oxy)methyl)tetrahydrofuran-3-yl nonanoate] it was below 0.001 µM. For the compound `CCCCCCCCC(=O)O[C@@H]1[C@@H](COP(=O)(OCOC(=O)C(C)(C)C)OCOC(=O)C(C)(C)C)O[C@@H](n2ccc(N)nc2=O)C1(F)F` [Compound 3], the EC50 is below 0.001 µM. In the case of `CC(C)OP(=O)(OC[C@H]1O[C@@H](n2ccc(N)nc2=O)C(F)(F)[C@@H]1OC(=O)C(C)C)OC(C)C` [Compound 16, (2R,3R,5R)-5-(4-amino-2-oxopyrimidin-1(2H)-(((diisopropoxyphosphoryl)oxy)methyl)-4,4-difluorotetrahydrofuran-3-yl isobutyrate] it was below 1 µM. To `CCCOP(=O)(OCCC)OC[C@H]1O[C@@H](n2ccc(N)nc2=O)C(F)(F)[C@@H]1OC(=O)CCC` [Compound 17, (2R,3R,5R)-5-(4-amino-2-oxopyrimidin-1(2H)-(((dipropoxyphosphoryl)oxy)methyl)-4,4-difluorotetrahydrofuran-3-yl butyrate] belongs 1 to 25 µM; to `CCCCCOP(=O)(OCCCCC)OC[C@H]1O[C@@H](n2ccc(N)nc2=O)C(F)(F)[C@@H]1OC(=O)CCCCC` [Compound 18, (2R,3R,5R)-5-(4-amino-2-oxopyrimidin-1(2H)-yl)-2-(((bis(pentyloxy)phosphoryl)oxy)methyl)-4,4-difluorotetrahydrofuran-3-yl hexanoate], below 1 µM; to `CCCCCCCOP(=O)(OCCCCCCC)OC[C@H]1O[C@@H](n2ccc(N)nc2=O)C(F)(F)[C@@H]1OC(=O)CCCCCCC` [Compound 19, (2R,3R,5R)-5-(4-amino-2-oxopyrimidin-1(2H)-yl)-2-(((bis(heptyloxy)phosphoryl)oxy)methyl)-4,4-difluorotetrahydrofuran-3-yl octanoate], below 1 µM. In the case of `CCCCCCCCCCCCCCCCC(=O)O[C@@H]1[C@@H](COP(=O)(OCCCCCCCC)OCCCCCCCC)O[C@@H](n2ccc(N)nc2=O)C1(F)F` [Compound 20, (2R,3R,5R)-5-(4-amino-2-oxopyrimidin-1(2H)-yl)-2-(((bis(octyloxy)phosphoryl)oxy)methyl)-4,4-difluorotetrahydrofuran-3-yl heptadecanoate] it was 1 to 25 µM; in that of `CCCCCCCCCCOP(=O)(OCCCCCCCCCC)OC[C@H]1O[C@@H](n2ccc(N)nc2=O)C(F)(F)[C@@H]1OC(=O)CCCCCCCCCC` [Compound 21, (2R,3R,5R)-5-(4-amino-2-oxopyrimidin-1(2H)-yl)-2-(((bis(decyloxy)phosphoryl)oxy)methyl)-4,4-difluorotetrahydrofuran-3-yl undecanoate], 1 to 25 µM; in that of `CCCCCCCCCCCCOP(=O)(OCCCCCCCCCCCC)OC[C@H]1O[C@@H](n2ccc(N)nc2=O)C(F)(F)[C@@H]1OC(=O)CCCCCCCCCCCC` [Compound 22, (2R,3R,5R)-5-(4-amino-2-oxopyrimidin-1(2H)-yl)-2-(((bis(dodecyloxy)phosphoryl)oxy)methyl)-4,4-difluorotetrahydrofuran-3-yl tridecanoate], 1 to 25 µM. Turning to `CCCCCCCCCCCCCCOP(=O)(OCCCCCCCCCCCCCC)OC[C@H]1O[C@@H](n2ccc(N)nc2=O)C(F)(F)[C@@H]1OC(=O)CCCCCCCCCCCCCC` [Compound 23, (2R,3R,5R)-5-(4-amino-2-oxopyrimidin-1(2H)-yl)-2-(((bis(tetradecyloxy)phosphoryl)oxy)methyl)-4,4-difluorotetrahydrofuran-3-yl pentadecanoate], the EC50 lay in the range of 1 to 25 µM. To `Nc1ccn([C@@H]2O[C@H](COP(=O)(OC3CCCCC3)OC3CCCCC3)[C@@H](OC(=O)C3CCCCC3)C2(F)F)c(=O)n1` [Compound 24, (2R,3R,5R)-5-(4-amino-2-oxopyrimidin-1(2H)-(((bis(cyclohexyloxy)phosphoryl)oxy)methyl)-4,4-difluorotetrahydrofuran-3-yl cyclohexanecarboxylate] belongs 1 to 25 µM; to `Nc1ccn([C@@H]2O[C@H](COP(=O)(Oc3ccccc3)Oc3ccccc3)[C@@H](OC(=O)c3ccccc3)C2(F)F)c(=O)n1` [Compound 25, (2R,3R,5R)-5-(4-amino-2-oxopyrimidin-1(2H)-yl)-2-(((diphenoxyphosphoryl)oxy)methyl)-4,4-difluorotetrahydrofuran-3-yl benzoate], 1 to 25 µM. `CCCCCCCCCCCCC(=O)O[C@@H]1[C@@H](COP2(=O)OCc3ccccc3O2)O[C@@H](n2ccc(N)nc2=O)C1(F)F` (stereo partly drawn) [Compound 28, (2R,3R,5R)-5-(4-amino-2-oxopyrimidin-1(2H)-yl)-4,4-difluoro-2-(((2-oxido-4H-benzo[d][1,3,2]dioxaphosphinin-2-yl)oxy)methyl)tetrahydrofuran-3-yl tridecanoate]: the EC50 was below 0.001 µM. To `CCCCCCCCCCCCCCC(=O)O[C@@H]1[C@@H](COP2(=O)OCc3ccccc3O2)O[C@@H](n2ccc(N)nc2=O)C1(F)F` (stereo partly drawn) [Compound 29, (2R,3R,5R)-5-(4-amino-2-oxopyrimidin-1(2H)-yl)-4,4-difluoro-2-(((2-oxido-4H-benzo[d][1,3,2]dioxaphosphinin-2-yl)oxy)methyl)tetrahydrofuran-3-yl pentadecanoate] belongs below 0.001 µM; to `CCCCCCCCCCCCCCCCC(=O)O[C@@H]1[C@@H](COP2(=O)OCc3ccccc3O2)O[C@@H](n2ccc(N)nc2=O)C1(F)F` (stereo partly drawn) [Compound 30, (2R,3R,5R)-5-(4-amino-2-oxopyrimidin-1(2H)-yl)-4,4-difluoro-2-(((2-oxido-4H-benzo[d][1,3,2]dioxaphosphinin-2-yl)oxy)methyl)tetrahydrofuran-3-yl heptadecanoate], below 0.001 µM. For `CCCCCCCCCCCCCCCCC(=O)O[C@@H]1[C@@H](COP2(=O)OCc3cccc(C)c3O2)O[C@@H](n2ccc(N)nc2=O)C1(F)F` (stereo partly drawn) [Compound 31, (2R,3R,5R)-5-(4-amino-2-oxopyrimidin-1(2H)-yl)-4,4-difluoro-2-(((8-methyl-2-oxido-4H-benzo[d][1,3,2]dioxaphosphinin-2-yl)oxy)methyl)tetrahydrofuran-3-yl heptadecanoate], the EC50 was below 0.001 µM.

On to `CCCCCCCCCCCCCCCCC(=O)O[C@@H]1[C@@H](COP2(=O)OCc3c(C)cccc3O2)O[C@@H](n2ccc(N)nc2=O)C1(F)F` (stereo partly drawn) [Compound 32, (2R,3R,5R)-5-(4-amino-2-oxopyrimidin-1(2H)-yl)-4,4-difluoro-2-(((5-methyl-2-oxido-4H-benzo[d][1,3,2]dioxaphosphinin-2-yl)oxy)methyl)tetrahydrofuran-3-yl heptadecanoate], for which the EC50 is below 0.001 µM. In the case of `CCCCCCCCCCCCC(=O)O[C@@H]1[C@@H](COP(=O)(OCOC(=O)C(C)(C)C)OCOC(=O)C(C)(C)C)O[C@@H](n2ccc(N)nc2=O)C1(F)F` [Compound 33] it was below 0.001 µM. To `CCCCCCCCCCCCCCC(=O)O[C@@H]1[C@@H](COP(=O)(OCOC(=O)C(C)(C)C)OCOC(=O)C(C)(C)C)O[C@@H](n2ccc(N)nc2=O)C1(F)F` [Compound 34] belongs below 0.001 µM. To `CCCCCCCCCCCCCCCCC(=O)O[C@@H]1[C@@H](COP(=O)(OCOC(=O)C(C)(C)C)OCOC(=O)C(C)(C)C)O[C@@H](n2ccc(N)nc2=O)C1(F)F` [Compound 35] belongs below 0.001 µM; to `CCCCCCCCCCCCCCCCCCC(=O)O[C@@H]1[C@@H](COP(=O)(OCOC(=O)C(C)(C)C)OCOC(=O)C(C)(C)C)O[C@@H](n2ccc(N)nc2=O)C1(F)F` [Compound 36], below 0.001 µM.
